# In patent US20150265682A1, “THERAPEUTIC METHODS AND COMPOSITIONS FOR TREATING DIABETES” (Orient Europharma Co., Ltd., priority 2014, published 2015):
# Key:
# [1] = system: IL-6-treated C2C12 cells; test: Glycogen content assay in IL-6-treated (insulin resistant) C2C12 cells; type: cell-based; conditions: 30 minutes; for fold increase of glycogen content: IL-6-treated C2C12
# Method: The C2C12 skeletal muscle cells were cultured in Dulbecco's modified Eagle's medium (DMEM; Gibco/Invitrogen, Carlsbad, Calif.), and the human hepatocellular carcinoma cell line, Hep3B, was cultured in Roswell Park Memorial Institute medium 1640 (RPMI 1640 medium; Gibco/Invitrogen, Carlsbad, Calif.). Cells were cultured at 37° C. in the humidified incubator supplied with 5% CO2. Culture mediums were supplemented with 4.5 mgmL^−1 glucose, penicillin 100 IUmL^−1, streptomycin 100 μgmL^−1 and 10% fetal bovine serum (Gibco/Invitrogen, Carlsbad, Calif.). Only C2C12 cells were then switched to 2% horse serum for 3 days after reaching the 70% confluence. Myotubes formation was achieved after 4 days of incubation, and the cells were used for subsequent experiments. Culture mediums were replaced by serum free DMEM or RPMI for 24 h before experiments (see e.g., procedure described in Sultan et al., 2006).
# C2C12 and Hep3B cells were treated with 1 nM insulin, 100 μM metformin, and the assigned concentration of borapetoside A for 30 minutes. To develop the insulin resistance state of cells, C2C12 cells were incubated with IL-6 at 20 ngmL^−1 for 1 hour. Later, the cells were treated with 1 nM insulin, 100 μM metformin, and the assigned concentration of borapetoside A for 30 minutes. After the assigned treatment, cells were washed twice with phosphate buffered saline (PBS). Glycogen content was measured as previously described, with some modifications (see e.g., Savage et al., 2008). The protein concentrations of the cell lysates were determined by using Pierce BCA Protein Assay Kit (Thermo-Scientific, Rockford, Ill.). The glycogen content of each sample was normalized by total protein.
# [2] = system: soleus muscle of normal, T1DM and T2DM mice; test: Glycogen content of skeletal muscle (borapetoside C or insulin); type: in vivo, ICR mice; conditions: borapetoside C 5 mg/kg i.p., insulin (Actrapid) 0.5 IU/kg i.p.
# Method: This study was conducted following the University ethical guidelines on animal experimentation and complied with the Guide for the Care and Use of Laboratory Animals published by the US National Institutes of Health (NIH publication no. 85-23, revised 1996). The animal facility was well controlled for temperature (22±1° C.), and humidity (60±5%) and a 12 h/12 h light-dark cycle was maintained with access to food and water ad libitum. Four-week-old male ICR mice were acquired from BioLasco Taiwan Co., Ltd. and maintained at College of Medicine Experimental Animal Center, National Taiwan University. The study was conducted on 8-10 week-old male ICR mice.
# (§1) T1DM mice were induced by a known method. In brief, an intraperitoneal injection of streptozotocin (STZ; Sigma Chemical Co.; St. Louis, Mo.) at 150 mg/kg was performed in mice that were fasted for 48 h. The induction of T1DM was assessed and confirmed when the mice had plasma glucose levels ≧350 mg/dL, accompanied with polyuria, hyperphagia and decreased body weight. The control mice group received an injection of vehicle and then carried out for 4 weeks. T2DM mice were induced by maintaining on a fat-rich chow diet and fructose-sweetened water for 4 weeks from the age of 4-5 weeks according to previous methods. The induction T2DM mice were assessed by measuring fasting plasma glucose levels and confirmed when plasma glucose level was ≧150 mg/dL after a 4-week induction.
# (§2) Glycogen content of skeletal muscles was measured by a known method. In brief, mice were injected with borapetoside C (5.0 mg/kg, interperitoneal) for 60 min or insulin (0.5 IU/kg, interperitoneal.) for 30 min, and the soleus muscle was isolated from anesthetized mice. About 40 mg of muscle sample was dissolved in 1 N KOH at 75° C. for 30 min. The dissolved homogenate was neutralized by glacial acetic acid and then incubated overnight in acetate buffer (0.3 M sodium acetate, pH 4.8) containing amyloglucosidase (Sigma, St. Louis, Mo.). The mixture was then neutralized with 1 N NaOH to stop the reaction. The glycogen contents in the tissue samples were determined as μg of glucose per mg of tissue (wet weight).
# [3] = system: skeletal muscle of normal, T1DM and T2DM mice; test: Glycogen content in skeletal muscle after borapetoside C and insulin; type: in vivo, ICR mice; conditions: for Glycogen content in skeletal muscle: BoC 0.1 mg/kg i.p. 30 min before insulin, 30 min after insulin injection
# Method: as §1, §2
# Both non-diabetic and diabetic mice were subjected to various doses of insulin injections at 30 min after intraperitoneal injections with borapetoside C (0.1 mg/kg) or with the vehicle. The glycogen contents in skeletal muscles were then determined at 30 min after insulin injections (Table 4). The ratios of increased glycogen content in the other groups were normalized to those of vehicle-treated group. The ratio was 119.8%, 125.3%, and 108.5% in normal, T1DM, and T2DM mice of insulin-treated group. In borapetoside C combined with insulin-treated group, it was 130.2%, 162.8%, and 122.6% in normal, T1DM, and T2DM mice. […] The increase of insulin sensitivity by borapetoside C is more prominent in diabetic mice than normal mice. Similarly, plasma glucose reduction in mice treated with insulin and borapetoside A are tested and measured.
Molecule,fold increase of glycogen content ([1]; 10^−6 mol/L) [fold],fold increase of glycogen content ([1]; 10^−7 mol/L) [fold],fold increase of glycogen content ([1]; 10^−8 mol/L) [fold],Glycogen synthesis in skeletal muscle (glycogen content) ([2]; Normal mice),Glycogen synthesis in skeletal muscle (glycogen content) ([2]; T1DM mice),Glycogen synthesis in skeletal muscle (glycogen content) ([2]; T2DM mice),Glycogen content in skeletal muscle ([3]; Normal mice),Glycogen content in skeletal muscle ([3]; T1DM mice),Glycogen content in skeletal muscle ([3]; T2DM mice),"glycogen content ([1]; IL-6-induced insulin resistant model, 1 nM insulin)",ratio of glycogen content normalized to vehicle-treated group ([3]; T1DM mice) [%],ratio of glycogen content normalized to vehicle-treated group ([3]; T2DM mice) [%],ratio of glycogen content normalized to vehicle-treated group ([3]; normal mice) [%]
"C[C@@]12C[C@@H](c3ccoc3)OC(=O)[C@@H]1C[C@@H]1OC(=O)[C@@]3(O)[C@@H](O[C@@H]4O[C@H](CO)[C@@H](O)[C@H](O)[C@H]4O)CC[C@@H]2[C@@]13C [Borapetoside A, borapetoside A]",1.64±0.05,1.38±0.06,1.35±0.08,,,,,,,,,,
"COC(=O)C1=CCC[C@H]2[C@]3(C)C[C@@H](c4ccoc4)OC(=O)[C@@H]3C[C@@H](O[C@@H]3O[C@H](CO)[C@@H](O)[C@H](O)[C@H]3O)[C@@]12C [Borapetoside C, borapetoside C]",,,,25.1 ± 1.3 μg of glucose per mg of tissue (wet weight),23.2 ± 0.7 μg of glucose per mg of tissue (wet weight),23.3 ± 0.4 μg of glucose per mg of tissue (wet weight),32.7 ± 0.7 μg of glucose per mg of tissue (wet weight),30.0 ± 1.2 μg of glucose per mg of tissue (wet weight),30.7 ± 1.3 μg of glucose per mg of tissue (wet weight),,,,
"Insulin: human insulin, Insulin Actrapid HM, a short-acting insulin provided by Novo Nordisk [reference compound]",,,,30.2 ± 2.0 μg of glucose per mg of tissue (wet weight),30.0 ± 1.0 μg of glucose per mg of tissue (wet weight),20.2 ± 0.6 μg of glucose per mg of tissue (wet weight),38.1 ± 0.3 μg of glucose per mg of tissue (wet weight),38.1 ± 2.3 μg of glucose per mg of tissue (wet weight),35.5 ± 1.1 μg of glucose per mg of tissue (wet weight),not increased,125.3,108.5,119.8
